Experimental data from patent US10738028B2, “Spiro three-membered ring, spiro five-membered ring peptide deformylase inhibitor and use thereof in antibacteria and anti-tumor” (priority 2016, dated 2020).
In brackets after ≈: the same amount, converted by molar mass.

Tests used:
Assay type in all cases: cell-based
[1] = test system: Enterococcus faecalis (EFA); assay: MIC, two-fold agar dilution (CLSI), clinical isolates
In short: (§1)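 Samples are serially diluted two-fold in agar following CLSI guidance. Plates are then inoculated with the tested strains. The lowest inhibiting concentration is recorded as MIC.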

[2] = test system: Enterococcus faecium (EFM); assay: as above
In short: as §1

[3] = test system: Escherichia coli (including ESBLs, non-ESBLs); assay: as above
In short: as §1

[4] = test system: Moraxella catarrhalis (BCA); assay: as above
In short: as §1

[5] = test system: Streptococcus pneoumoniae (SPN); assay: as above
In short: as §1

[6] = test system: methicillin-resistant Staphylococcus aureus (MRSA); assay: as above
In short: as §1

[7] = test system: methicillin-resistant Staphylococcus epidermidis (MRSE); assay: as above
In short: as §1

[8] = test system: methicillin-sensitive Staphylococcus aureus (MSSA); assay: as above
In short: as §1

[9] = test system: methicillin-sensitive Staphylococcus epidermidis (MSSE); assay: as above
In short: as §1

[10] = test system: HCT-116 colorectal cancer cell line; assay: CCK-8 proliferation inhibition; settings: concentration of 30 μM, 72 hours, CCK-8; for HCT116 inhibition rate/%: 30 µM
In short: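 Cells seeded at 2000 cells/well, cultured overnight at 37 °C, 5% CO2, then exposed to compound (DMSO; control 1‰ DMSO) for 72 h in McCoy's 5A with 10% newborn bovine serum. Viability read with 1:10 diluted CCK-8.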

[11] = test system: A549 lung cancer cell line; assay: CCK-8 proliferation inhibition; settings: concentration of 30 μM; for inhibition at 30 µM: Homo sapiens, A549, 72 h
In short: (§2)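 Plating at 2000 cells/well, then incubation overnight at 37° C. Next, a range of compound concentrations for 72 hours (control 1‰ DMSO). Finally, medium decanted and CCK-8 diluted 1:10 added.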

[12] = test system: BEL-7402 liver cancer cell line; assay: CCK-8 proliferation inhibition; settings: concentration of 30 μM, 72 hours, 30 µM
In short: as §2

[13] = test system: MGC-803 gastric cancer cell line; assay: CCK-8 proliferation inhibition; settings: concentration of 30 μM; for inhibition at 30 µM: Homo sapiens, MGC-803, 72 h; for Inhibition of proliferation, Gastric cancer MGC-803: 72 hours, 30 µM
In short: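 Cells seeded at 2000 cells/well, cultured overnight at 37 °C, 5% CO2, then exposed 72 h to compound dilutions in medium with 10% newborn bovine serum (1‰ DMSO control). Viability read with 1:10 diluted CCK-8 solution. Media: PC3 in F12; MGC-803 and Jurkat in 1640; MCF-7 in DMEM high glucose.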

[14] = MIC in vitro anti-bacterial experiments, Gram-positive bacteria; settings: lowest MIC reached; read-out: minimum inhibitory concentration against Gram-positive bacteria
Description: 1. The invention adopts the two-fold agar dilution method recommended by the operating procedure of antimicrobial susceptibility testing set by American Clinical and Laboratory Standards Institute (CLSI) to determine the Minimum Inhibitory Concentration (MIC) of the test samples against the tested strains.

CC(C)(C)c1cc(NC(=O)[C@@H]2CC3(CC3)CN2C(=O)[C@H](CC2CCCC2)CN(O)C=O)no1 [Example 38]
MIC (anti-bacterial activity) ([1]; strain EFA 15-1): 4 µg/mL (≈ 8.68 µM)
MIC (anti-bacterial activity) ([1]; strain EFA 15-2): 4 µg/mL (≈ 8.68 µM)
MIC (anti-bacterial activity) ([1]; strain EFA 15-3): 0.25 µg/mL (≈ 0.543 µM)
MIC (anti-bacterial activity) ([1]; strain EFA 15-4): 4 µg/mL (≈ 8.68 µM)
MIC (anti-bacterial activity) ([1]; strain EFA 15-5): 4 µg/mL (≈ 8.68 µM)
MIC (anti-bacterial activity) ([1]; strain EFA 15-6): 4 µg/mL (≈ 8.68 µM)
MIC (anti-bacterial activity) ([1]; strain EFA 15-9): 4 µg/mL (≈ 8.68 µM)
MIC (anti-bacterial activity) ([2]; strain EFM 15-1): 0.25 µg/mL (≈ 0.543 µM)
MIC (anti-bacterial activity) ([2]; strain EFM 15-2): 0.25 µg/mL (≈ 0.543 µM)
MIC (anti-bacterial activity) ([2]; strain EFM 15-3): 0.25 µg/mL (≈ 0.543 µM)
MIC (anti-bacterial activity) ([2]; strain EFM 15-4): 0.5 µg/mL (≈ 1.09 µM)
MIC (anti-bacterial activity) ([2]; strain EFM 15-5): 0.25 µg/mL (≈ 0.543 µM)
MIC (anti-bacterial activity) ([2]; strain EFM 15-6): 0.5 µg/mL (≈ 1.09 µM)
MIC (anti-bacterial activity) ([3]; strain ECO+ 15-1): 16 µg/mL (≈ 34.7 µM)
MIC (anti-bacterial activity) ([3]; strain ECO+ 15-2): 32 µg/mL (≈ 69.5 µM)
MIC (anti-bacterial activity) ([3]; strain ECO+ 15-3): 16 µg/mL (≈ 34.7 µM)
MIC (anti-bacterial activity) ([3]; strain ECO+ 15-4): 16 µg/mL (≈ 34.7 µM)
MIC (anti-bacterial activity) ([3]; strain ECO− 15-1): 16 µg/mL (≈ 34.7 µM)
MIC (anti-bacterial activity) ([3]; strain ECO− 15-2): 32 µg/mL (≈ 69.5 µM)
MIC (anti-bacterial activity) ([3]; strain ECO− 15-3): 32 µg/mL (≈ 69.5 µM)
MIC (anti-bacterial activity) ([3]; strain ECO− 15-4): 32 µg/mL (≈ 69.5 µM)
Anti-bacterial activity (MIC), strain BCA 14-10 ([4]; clinical isolate BCA 14-10): 0.25 µg/mL
MIC (anti-bacterial activity) ([4]; strain BCA 14-1): 0.25 µg/mL (≈ 0.543 µM)
MIC (anti-bacterial activity) ([4]; strain BCA 14-4): 1 µg/mL (≈ 2.17 µM)
MIC (anti-bacterial activity) ([4]; strain BCA 14-5): 0.5 µg/mL (≈ 1.09 µM)
MIC (anti-bacterial activity) ([4]; strain BCA 14-6): 1 µg/mL (≈ 2.17 µM)
MIC (anti-bacterial activity) ([4]; strain BCA 14-7): 0.25 µg/mL (≈ 0.543 µM)
MIC (anti-bacterial activity) ([4]; strain BCA 14-8): 0.25 µg/mL (≈ 0.543 µM)
MIC (anti-bacterial activity) ([5]; strain SPN 16-2): 0.25 µg/mL (≈ 0.543 µM)
MIC (anti-bacterial activity) ([5]; strain SPN 16-4): 0.5 µg/mL (≈ 1.09 µM)
MIC (anti-bacterial activity) ([6]; strain MRSA 15-1): 0.125 µg/mL (≈ 0.271 µM)
MIC (anti-bacterial activity) ([6]; strain MRSA 15-2): 0.125 µg/mL (≈ 0.271 µM)
MIC (anti-bacterial activity) ([6]; strain MRSA 15-3): 0.125 µg/mL (≈ 0.271 µM)
MIC (anti-bacterial activity) ([6]; strain MRSA 15-4): 0.25 µg/mL (≈ 0.543 µM)
MIC (anti-bacterial activity) ([7]; strain MRSE 15-1): 0.25 µg/mL (≈ 0.543 µM)
MIC (anti-bacterial activity) ([7]; strain MRSE 15-2): 0.25 µg/mL (≈ 0.543 µM)
MIC (anti-bacterial activity) ([7]; strain MRSE 15-3): 0.25 µg/mL (≈ 0.543 µM)
MIC (anti-bacterial activity) ([7]; strain MRSE 15-7): 0.25 µg/mL (≈ 0.543 µM)
MIC (anti-bacterial activity) ([8]; strain MSSA 15-3): 0.25 µg/mL (≈ 0.543 µM)
MIC (anti-bacterial activity) ([8]; strain MSSA 15-4): 0.25 µg/mL (≈ 0.543 µM)
MIC (anti-bacterial activity) ([8]; strain MSSA 15-5): 0.125 µg/mL (≈ 0.271 µM)
MIC (anti-bacterial activity) ([8]; strain MSSA 15-6): 0.125 µg/mL (≈ 0.271 µM)
MIC (anti-bacterial activity) ([9]; strain MSSE 15-3): 0.25 µg/mL (≈ 0.543 µM)
MIC (anti-bacterial activity) ([9]; strain MSSE 15-4): 0.25 µg/mL (≈ 0.543 µM)
MIC (anti-bacterial activity) ([9]; strain MSSE 15-5): 0.25 µg/mL (≈ 0.543 µM)
MIC (anti-bacterial activity) ([9]; strain MSSE 15-6): < 0.008 µg/mL
inhibition at 30 µM ([10]; Homo sapiens, HCT-116, 72 h, read-out: HCT116 inhibition rate/%): > 50%
HCT116 inhibition rate/% [10]: 52%
inhibition at 30 µM [11]: 38%
Inhibition of proliferation, Liver cancer BEL-7402 [12]: 75%
inhibition at 30 µM [13]: > 50%
Inhibition of proliferation, Gastric cancer MGC-803 [13]: 50%
MIC [14]: < 0.008 µg/mL

O=C(C[C@@H](CC1CCCC1)C(=O)N1CC2(CC2)C[C@H]1C(=O)Nc1nccs1)NO [Example 72, (S)-5-((R)-2-(cyclopentylmethyl)-4-(hydroxyamino)-4-oxobutanoyl)-N-(thiazol-2-yl)-5-azaspiro[2.4]heptane-6-carboxamide]
Anti-bacterial activity (MIC) ([1]; strain EFA 15-1): 32 µg/mL
Anti-bacterial activity (MIC) ([1]; strain EFA 15-2): 32 µg/mL
Anti-bacterial activity (MIC) ([1]; strain EFA 15-3): 32 µg/mL
Anti-bacterial activity (MIC) ([1]; strain EFA 15-4): 32 µg/mL
Anti-bacterial activity (MIC) ([1]; strain EFA 15-5): 32 µg/mL
Anti-bacterial activity (MIC) ([1]; strain EFA 15-6): 32 µg/mL
Anti-bacterial activity (MIC) ([1]; strain EFA 15-9): 2 µg/mL
Anti-bacterial activity (MIC) ([2]; strain EFM 15-1): 32 µg/mL
Anti-bacterial activity (MIC) ([2]; strain EFM 15-2): 32 µg/mL
Anti-bacterial activity (MIC) ([2]; strain EFM 15-3): 32 µg/mL
Anti-bacterial activity (MIC) ([2]; strain EFM 15-4): 0.5 µg/mL
Anti-bacterial activity (MIC) ([2]; strain EFM 15-5): 0.125 µg/mL
Anti-bacterial activity (MIC) ([2]; strain EFM 15-6): 0.5 µg/mL
Anti-bacterial activity (MIC), strain ECO+ 15-1 ([3]; clinical isolate ECO+ 15-1): 16 µg/mL
Anti-bacterial activity (MIC), strain ECO+ 15-2 ([3]; clinical isolate ECO+ 15-2): 16 µg/mL
Anti-bacterial activity (MIC), strain ECO+ 15-3 ([3]; clinical isolate ECO+ 15-3): 16 µg/mL
Anti-bacterial activity (MIC), strain ECO+ 15-4 ([3]; clinical isolate ECO+ 15-4): 16 µg/mL
Anti-bacterial activity (MIC), strain ECO− 15-1 ([3]; clinical isolate ECO− 15-1): 16 µg/mL
Anti-bacterial activity (MIC), strain ECO− 15-2 ([3]; clinical isolate ECO− 15-2): 16 µg/mL
Anti-bacterial activity (MIC), strain ECO− 15-3 ([3]; clinical isolate ECO− 15-3): 16 µg/mL
Anti-bacterial activity (MIC), strain ECO− 15-4 ([3]; clinical isolate ECO− 15-4): 16 µg/mL
Anti-bacterial activity (MIC) ([4]; strain BCA 14-1): 0.25 µg/mL
Anti-bacterial activity (MIC) ([4]; strain BCA 14-4): 0.5 µg/mL
Anti-bacterial activity (MIC) ([4]; strain BCA 14-5): 0.125 µg/mL
Anti-bacterial activity (MIC) ([4]; strain BCA 14-6): 0.125 µg/mL
Anti-bacterial activity (MIC) ([4]; strain BCA 14-7): 0.5 µg/mL
Anti-bacterial activity (MIC) ([4]; strain BCA 14-8): 0.25 µg/mL
Anti-bacterial activity (MIC) ([4]; strain BCA 14-10): 0.125 µg/mL
Anti-bacterial activity (MIC) ([5]; strain SPN 16-2): 0.5 µg/mL
Anti-bacterial activity (MIC) ([5]; strain SPN 16-4): 0.25 µg/mL
Anti-bacterial activity (MIC), strain MRSA 15-1 ([6]; clinical isolate MRSA 15-1): 0.06 µg/mL
Anti-bacterial activity (MIC), strain MRSA 15-2 ([6]; clinical isolate MRSA 15-2): 0.125 µg/mL
Anti-bacterial activity (MIC), strain MRSA 15-3 ([6]; clinical isolate MRSA 15-3): 0.06 µg/mL
Anti-bacterial activity (MIC), strain MRSA 15-4 ([6]; clinical isolate MRSA 15-4): 0.125 µg/mL
Anti-bacterial activity (MIC), strain MRSE 15-1 ([7]; clinical isolate MRSE 15-1): 0.03 µg/mL
Anti-bacterial activity (MIC), strain MRSE 15-2 ([7]; clinical isolate MRSE 15-2): 0.125 µg/mL
Anti-bacterial activity (MIC), strain MRSE 15-3 ([7]; clinical isolate MRSE 15-3): 0.125 µg/mL
Anti-bacterial activity (MIC), strain MRSE 15-7 ([7]; clinical isolate MRSE 15-7): 0.125 µg/mL
Anti-bacterial activity (MIC), strain MSSA 15-3 ([8]; clinical isolate MSSA 15-3): 0.125 µg/mL
Anti-bacterial activity (MIC), strain MSSA 15-4 ([8]; clinical isolate MSSA 15-4): 0.06 µg/mL
Anti-bacterial activity (MIC), strain MSSA 15-5 ([8]; clinical isolate MSSA 15-5): 0.03 µg/mL
Anti-bacterial activity (MIC), strain MSSA 15-6 ([8]; clinical isolate MSSA 15-6): 16 µg/mL
Anti-bacterial activity (MIC), strain MSSE 15-3 ([9]; clinical isolate MSSE 15-3): 0.06 µg/mL
Anti-bacterial activity (MIC), strain MSSE 15-4 ([9]; clinical isolate MSSE 15-4): 0.125 µg/mL
Anti-bacterial activity (MIC), strain MSSE 15-5 ([9]; clinical isolate MSSE 15-5): 0.125 µg/mL
Anti-bacterial activity (MIC), strain MSSE 15-6 ([9]; clinical isolate MSSE 15-6): < 0.008 µg/mL
HCT116 inhibition rate/% [10]: 75%
inhibition at 30 µM [11]: > 50%
Inhibition of proliferation, Lung cancer A549 ([11]; 72 hours, 30 µM): 50%
Inhibition of proliferation, Liver cancer BEL-7402 [12]: 76%
inhibition at 30 µM [13]: > 50%
Inhibition of proliferation, Gastric cancer MGC-803 [13]: 63%
MIC [14]: < 0.008 µg/mL
